Test results: patent US5082838A, “Sulfur-containing fused pyrimidine derivatives, their production and use” (Takeda Chemical Industries, Ltd., priority 1989, dated 1992)

Columns and labels:
[1] = tested on: NGF; assay: Promoting effects on synthesis and secretion of NGF in glia cells (C6 glioma), enzyme immuno assay; assay type: cell-based; conditions: 24 hours, read-out: Promoting Activity (%) of NGF synthesis and secretion (relative to control = 100); for activity at 30 µM: 3 × 10^-5 M; for activity at 3 µM: 3 × 10^-6 M
Description: Promoting Effects of the Compounds on Synthesis and Secretion of NGF in Glia Cells
A 48 well-plate was seeded with glia strains cells (C6 glioma) at a rate of 2.5×10^4 cells/well, which was cultivated in Dulbecco's modified eagle's medium (DMEM) containing 10% fetal calf serum. When the cells became confluent (2 to 3 days), each of the following compounds of the present invention was added thereto, and it was cultivated in serum free-DMEM for 24 hours. NGF secreted in the culture supernatant was assayed by enzyme immuno assay. An amount of NGF is shown in a relative value to 100, the value of control (without addition of the compound). The compounds were added in a solution of DMSO, at an amount of 1/100 (V/V) of a medium (V/V). In a control, DMSO alone was added.

[2] = tested on: endothelin constriction; assay: Inhibitory effects on endothelin induced contraction in porcine coronary arteries (LAD rings); assay type: cell-based; conditions: Sus scrofa, endothelin 3×10^-9 M, read-out: Inhibition (%) of maximum contraction by endothelin; for inhibition at 10 µM: 10^-5 M; for inhibition at 1 µM: 10^-6 M
Description: Inhibitory Effects of the Compounds on […] Induced Contraction in Porcine Coronary Arteries
Ring preparation of porcine left arterior descending coronary arteries (LAD) were suspended in 20 ml baths containing Krebs-Henseleit solutions at 37° C. gassed with 97% O2 -3% CO2. Endothelin (3×10^-9 M) was added to the baths, and after the constriction reached the steady state, the compounds at concentrations of […] and 10^-5 M (Examples 45, 48 and 127) were added to the bath. Then, the relaxation activity was examined. The relaxation activity of the compounds was expressed as % inhibition from the maximum contraction by endothelin.

[3] = tested on: Interleukin 1 Production; assay: Inhibitory effects on interleukin 1 production stimulated by lipopolysaccharide in rat intraperitoneal macrophage (LAF assay); assay type: cell-based, Male Sprague-Dawley rats; conditions: LPS 50 ug/ml; for inhibition at 10 µM: 10^-5 Molar; for inhibition at 1 µM: 10^-6 Molar
Description: Inhibitory Effects on Interleukin 1 Production Simulated by Lipopolysaccharide in the Rat Intraperitoneal Macrophage
Male Sprague-Dawley rats (8 weeks old, body weight: 300 g, Clea Japan) were killed by exsanguination under etherization. 20 ml of a culture solution (RPMI-1640) was intraperitoneally administered to each rat, and the abdominal part thereof was massaged, followed by abdominal section to recover the culture solution. After centrifugation of the solution, the cell pellet obtained was resuspended in 4 ml of the culture solution, superposed on 5 ml of Ficoll-Paque solution (lymphocyte separation medium, Wako Junyaku, Japan), and centrifuged at 450 g at room temperature for 15 minutes. The cells located in the boundary between the Ficoll-Paque solution and the culture solution were collected and washed 3 times with the culture solution. The resulting cells were suspended in the culture solution again, which was used as a macrophage-suspended solution (3×10^5 cells/ml).
Interleukin 1 was produced in the following manner. Macrophage (3×10^5 cells) in a 96-well microtiter plate was preincubated in a CO 2 incubator for 1 hour with each of the compounds shown in Table 5. Then, 50 ug/ml of lipopolysaccharide (Escherichia coli 0111 B4, Difco) was added thereto. After cultivation was further continued for 20 hours, the activity of interleukin 1 in the culture supernatant was measured by an LAF (lymphocyte activating factor) assay. Experiments were carried out in a triplicate manner.
The LAF assay was conducted as the following. Thymocytes (1-1.5×10^6 cells) of C3H/HeJ mice were added to phytohemagglutinin (PHA) P (diluted 1/2000; Difico) and the macrophage culture solution diluted 1/10 or 1/30, and cultivated in a CO2 incubator. After 48 hours, ^3 H-thymidine of 0.5 uCi was added thereto and cultivation was further continued for 24 hours. Then, the amount of ^3 H-thymidine entrapped in the thymocytes was measured. The radioactivity entrapped in the thymocytes was taken as the amount of interleukin-1.
We conducted this process partly modifying the method of R. C. Newton et al. [J. Leukocyte, Biology 39, 299-3111 (1986)].

[4] = tested on: Endothelin Induced Pressor and Depressor Responses; assay: Inhibitory effects on endothelin induced pressor and depressor responses in conscious beagle dogs; assay type: in vivo
Text: Inhibitory Effects on Endothelin Induced Pressor and Depressor Responses in Conscious Beagle Dogs
Using 10 male beagles (12-14 kg, 8-10 months old), a polyethylene cannula (PEG-100) was inserted into each of the left femoral artery and vein of each beagle after pentobarbital anesthesia. The experiment was started from 3 to 7 days after the operation. The cannula was connected to a pressure transducer to measure the systemic blood pressure. The endothelin antagonistic activity of the compound obtained in Example 65 was examined, taking the depressor and pressor responses due to the intravenous administration of endothelin as its indication. […]

[5] = tested on: Ischemic and Reperfused Rat Heart; assay: Depressing effect against evolution of infarct size in ischemic and reperfused rat heart; assay type: in vivo, Male Wistar rats; conditions: 100 mg/kg p.o. 2 hours before occlusion and 5 hours after reperfusion; n = 5; control 36.7 ± 1.4 (12); P < 0.01
Description: Depressing Effect Against Evolution of Infarct Size in Ischemic and Reperfused Rat Heart
Male Wistar rats were medianly dissected under pentobarbital anesthesia, and left anterior descending coronary artery was occluded at its origin for 1 hour, followed by resumption of Blood flowing. The chest was closed 30 to 60 minutes after the reperfusion, and the rates were kept under conscious state. After 24 hours, the rats were anesthetized again and the hearts were excised. The left ventricle of each heart was divided into six parts, and these divided parts were stained with 1% triphenyltetrazolium chloride solution at 37° C. for 15 minutes. Then, infarcted portions were weighed.
The compound obtained in Example 127 was orally administered in a dose of 100 mg/kg as a gum arabic suspension 2 hours before the occlusion and 5 hours after the reperfusion.

[6] = tested on: Feverescence of Rat Due to Lipopolvsaccharide (LPS); assay: Antipyretic activity in LPS-induced febrile rats; assay type: in vivo, Male JcL;SD rats; conditions: p.o.
Description: Activity of Depressing Feverescence of Rat Due to Lipopolvsaccharide (LPS)
Male JcL;SD rats 7 weeks old (body weight: about 250 g, Clea Japan) were used. Each group had 6 rats. The rats were reared in individual cages from the day before, and then the basal body temperature was measured in the rectums using a digital thermometer (Model D221-6, Takara Kogyo) 3 times at intervals of 1 hour. After the third measurement of the body temperature, the compounds shown in Table 6 were orally administered in a volume of 1 ml per 100 g of body weight. LPS (Escherichia coli 0111 B4, Difco) was administered from their tail veins in an amount of 0.2 ml per 100 g of body weight 1 hour after the administration of the compounds.
The body temperature was measured from 3 to 5 hours after that at intervals of 1 hour. The antipyretic activity of the compounds was evaluated by the difference in body temperature between a control group and a compound-administered group. Statistical analysis was carried out by the Dunnett's test.

[7] = 1 mg/kg, i.v., 5 min after administration, n = 4
[8] = 1 mg/kg, i.v., 1 hr after administration, n = 4
[9] = 1 mg/kg, i.v., 2 hr after administration, n = 4
[10] = 1 mg/kg, i.v., 4 hr after administration, n = 4
[11] = 1 mg/kg, i.v., 6 hr after administration, n = 4
[12] = 10 mg/kg, p.o., 1 hr after administration, n = 3
[13] = 10 mg/kg, p.o., 2 hr after administration, n = 3
[14] = 10 mg/kg, p.o., 4 hr after administration, n = 3
[15] = 10 mg/kg, p.o., 8 hr after administration, n = 3

CCCn1c(=O)c(-c2ccccc2)c2n(c1=O)CCCS2(=O)=O [Example 58, 1,1-Dioxo-9-phenyl-7-propyl-3,4-dihydro-2H,6H-pyrimido [6,1-b][1,3]thiazine-6,8(7H)-dione]
activity at 30 µM [1]: 140 ± 2%
activity at 3 µM [1]: 164 ± 25%

CCCCn1c(=O)c(-c2ccccc2)c2n(c1=O)CCC[S+]2[O-] (stereo not shown) [Example 45]
inhibition at 10 µM [2]: 100%
inhibition at 1 µM [2]: 6.2%
inhibition at 10 µM [3]: 75%
inhibition at 1 µM [3]: 30%

CCCn1c(=O)c(-c2ccccc2)c2n(c1=O)CC=CS2 [Example 127, 9-Phenyl-7-propyl-4H,6H-pyrimido[6,1-b][1,3]thiazine6,8(7H)-dione]
inhibition at 10 µM [2]: 90%
inhibition at 1 µM [2]: 82.3%
% inhibition of Depressor Response [4, 7]: 86 ± 9%
% inhibition of Pressor Response [4, 7]: 100%
% inhibition of Depressor Response [4, 8]: 74 ± 11%
% inhibition of Pressor Response [4, 8]: 55 ± 7%
% inhibition of Depressor Response [4, 9]: 57 ± 10%
% inhibition of Pressor Response [4, 9]: 55 ± 7%
% inhibition of Depressor Response [4, 10]: 31 ± 13%
% inhibition of Pressor Response [4, 10]: 38 ± 15%
% inhibition of Depressor Response [4, 11]: 30 ± 8%
% inhibition of Pressor Response [4, 11]: 32 ± 10%
% inhibition of Depressor Response [4, 12]: 34 ± 9%
% inhibition of Pressor Response [4, 12]: 37 ± 10%
% inhibition of Depressor Response [4, 13]: 81 ± 10%
% inhibition of Pressor Response [4, 13]: 85 ± 10%
% inhibition of Depressor Response [4, 14]: 67 ± 12%
% inhibition of Pressor Response [4, 14]: 76 ± 12%
% inhibition of Depressor Response [4, 15]: 50 ± 0%
% inhibition of Pressor Response [4, 15]: 43 ± 4%
ratio of the weight of the infarcted region to the weight of the left ventricles [5]: 26.8 ± 3.1%

O=c1c(-c2ccccc2)c2n(c(=O)n1-c1ccccc1)CCS2(=O)=O [Example 63]
inhibition at 10 µM [3]: 98%

CCCn1c(=O)c(-c2ccccc2)c2n(c1=O)CCS2(=O)=O [Example 61]
activity at 30 µM [1]: 109 ± 12%
activity at 3 µM [1]: 177 ± 8%

CCn1c(=O)c(-c2ccccc2)c2n(c1=O)CCCS2 [Example 17]
inhibition at 10 µM [3]: 93%

CCn1c(=O)c(-c2ccccc2)c2n(c1=O)CCCS2(=O)=O [Example 65]
inhibition at 10 µM [3]: 100%
inhibition at 1 µM [3]: 40%
Antipyretic Activity (difference in body temperature vs. control group) ([6]; 100 mg/kg): -0.95 °C

CCn1c(=O)c(-c2ccccc2)c2n(c1=O)CCC[S+]2[O-] (stereo not shown) [Example 43]
inhibition at 10 µM [3]: 52%
Antipyretic Activity (difference in body temperature vs. control group) ([6]; 100 mg/kg): -0.70 °C

O=c1c(-c2ccccc2)c2n(c(=O)n1Cc1ccccc1)CCCS2 [Example 36, 7-benzyl-9-phenyl-3,4-dihydro-2H,6H-pyrimido[6,1-b][1,3]thiazine-6,8(7H)-dione]
activity at 30 µM [1]: 102 ± 2%
activity at 3 µM [1]: 240 ± 16%

O=c1c(-c2ccccc2)c2n(c(=O)n1Cc1ccccc1)CC=CS2 [Example 129, 7-Benzyl-9-phenyl-4H,6H-pyrimido[6,1-b][1,3]thiazine-6,8(7H)-dione]
activity at 30 µM [1]: 117 ± 6%
activity at 3 µM [1]: 197 ± 9%

CCCCn1c(=O)c(-c2ccccc2)c2n(c1=O)CCCS2 [Example 23]
Antipyretic Activity (difference in body temperature vs. control group) ([6]; 100 mg/kg): -0.72 °C

O=c1c(-c2ccccc2)c2n(c(=O)n1-c1ccccc1)CCCS2(=O)=O [Example 67]
inhibition at 10 µM [3]: 98%
inhibition at 1 µM [3]: 10%

CCCn1c(=O)c(-c2ccccc2)c2n(c1=O)CC[S+]2[O-] (stereo not shown) [Example 48]
inhibition at 10 µM [2]: 86.6%
inhibition at 1 µM [2]: 24.6%

Cn1c(=O)c(-c2ccccc2)c2n(c1=O)CCCS2(=O)=O [Example 64]
inhibition at 10 µM [3]: 100%
inhibition at 1 µM [3]: 60%
Antipyretic Activity (difference in body temperature vs. control group) ([6]; 25 mg/kg): -0.68 °C
Antipyretic Activity (difference in body temperature vs. control group) ([6]; 50 mg/kg): -0.82 °C
Antipyretic Activity (difference in body temperature vs. control group) ([6]; 100 mg/kg): -1.13 °C

Cn1c(=O)c(-c2ccccc2)c2n(c1=O)CCS2(=O)=O [Example 59]
inhibition at 10 µM [3]: 89%

CCCCn1c(=O)c(-c2ccccc2)c2n(c1=O)CCS2(=O)=O [Example 62]
inhibition at 10 µM [3]: 96%

CCCC/C=C/c1c2n(c(=O)n(CCC)c1=O)CCS2 [Example 106]
Antipyretic Activity (difference in body temperature vs. control group) ([6]; 100 mg/kg): -0.53 °C

9-Formyl-7-propyl-3,4-dihydro-2H,6H-pyrimido[6,1-b][1,3]thiazine-6,8(7H)-dione [Example 101]
Antipyretic Activity (difference in body temperature vs. control group) ([6]; 100 mg/kg): -0.87 °C

CCCCCn1c(=O)c(-c2ccccc2)c2n(c1=O)CCC[S+]2[O-] (stereo not shown) [Example 50]
inhibition at 10 µM [3]: 98%
inhibition at 1 µM [3]: 58%

CCCn1c(=O)c(-c2ccccc2)c2n(c1=O)CCCS2 [Example 1, 9-Phenyl-7-propyl-3,4-dihydro-2H,6H-pyrimido[6,1-b][1,3] thiazine-6,8(7H)-dione]
activity at 30 µM [1]: 117 ± 34%
activity at 3 µM [1]: 168 ± 6%
